Test results as given in patent publication US20070161623A1, “Urea derivatives” (MERCK PATENT GMBH, priority 2004, published 2007).

Biological target: FXa (Homo sapiens, UniProt P00742)
Test: Factor Xa inhibition (FXa-IC50)
Assay type: biochemical
Source text: The inhibition of factor Xa by the compounds according to the invention and the measurement of the anticoagulant and antithrombotic activity can be determined by conventional in-vitro or in-vivo methods. A suitable method is described, for example, by J. Hauptmann et al. in Thrombosis and Haemostasis 1990, 63, 220-223.
The inhibition of factor Xa can be measured, for example by the method of T. Hara et al. in Thromb. Haemostas. 1994, 71, 314-319.

FXa, sequence (P00742 235-488 limits assumed): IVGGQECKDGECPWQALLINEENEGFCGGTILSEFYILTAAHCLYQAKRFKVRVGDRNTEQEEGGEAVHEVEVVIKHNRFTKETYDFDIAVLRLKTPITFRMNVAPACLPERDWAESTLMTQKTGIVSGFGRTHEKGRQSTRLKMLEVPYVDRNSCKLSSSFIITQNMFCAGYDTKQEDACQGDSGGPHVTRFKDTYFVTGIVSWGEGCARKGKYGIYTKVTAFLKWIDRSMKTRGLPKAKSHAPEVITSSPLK
FXa, sequence (P00742 41-179 limits assumed): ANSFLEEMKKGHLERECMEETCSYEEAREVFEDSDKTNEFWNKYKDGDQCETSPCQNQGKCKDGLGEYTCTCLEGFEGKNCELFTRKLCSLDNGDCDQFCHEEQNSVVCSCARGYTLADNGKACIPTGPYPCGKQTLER

Row | SMILES | IC50
1 | Cc1cc(NC(=O)Nc2cc(O)ccc2NC(=O)Nc2ccc(Cl)cc2)ccc1N1CCOCC1=O [Compound A1, 1-(4-chlorophenyl)-3-(4-hydroxy-2-{3-[3-methyl-4-(3-oxo-morpholin-4-yl)phenyl]ureido}phenyl)urea] | 12 nM
2 | Cc1cc(NC(=O)Nc2ccncc2NC(=O)Nc2ccc(Cl)cc2)ccc1N1CCOCC1=O [Compound B0, 1-(4-Chlorophenyl)-3-(4-{3-[3-methyl-4-(3-oxomorpholin-4-yl)-phenyl]ureido}pyridin-3-yl)urea] | 420 nM
